In patent US20070105788A1, “Azithromycin for treatment of granulomatous rosacea” (priority 2005, published 2007):

System: granulomatous rosacea
Test: Case reports: treatment of patients with granulomatous rosacea
Type: in vivo, human
Conditions: for clinical response of granulomatous rosacea at follow-up: two months later
Procedure: A patient presented with severe inflammatory diffuse facial granulomatous rosacea. The condition had been present for 6 years.
They were started on oral azithromycin 500 mg daily dose together with an estrogenic hormone, norgestimate/ethinyl estradiol (ORTHO TRI-CYCLEN®, Ortho-McNeil Pharmaceutical, Raritan, N.J.). […] Treatment was continued with a follow-up examination expected in another 6 to 8 weeks.
A patient presented with complaints of a “facial rash”. […] They were started on oral cephalexin. […] Treatment with dicloxicillin was initiated.
Oral azithromycin at a dosage of 500 mg daily was started, together with daily topical application of a sodium sulfacetamide 10% with sulfur 5% cream and a metronidazole cream.
A person presented with a facial rash.
Treatment was initiated with a variety of topical medications, including metronidazole gel, Elidel® (pimecrolimus, Novartis Pharmaceuticals Corp., New York, N.Y.), 2.4% hydrocortisone, and desonide cream.
The next therapy tried was oral doxycycline 100 mg twice daily. […] The patient was then started on Accutane® (Hoffman-LaRoche Inc., Nutley, N.J.) at an initial dosage of 20 mg per day, which was subsequently raised to 40 mg per day and then to 60 mg per day.
Treatment was subsequently initiated with azithromycin as the sole therapy, administered orally at a dosage of 250 mg daily for three weeks.

## CC[C@H]1OC(=O)[C@H](C)[C@@H](O[C@H]2C[C@@](C)(OC)[C@@H](O)[C@H](C)O2)[C@H](C)[C@@H](O[C@@H]2O[C@H](C)C[C@H](N(C)C)[C@H]2O)[C@](C)(O)C[C@@H](C)CN(C)[C@H](C)[C@@H](O)[C@]1(C)O [azithromycin]
Example 1, azithromycin reduced to 500 mg every other day plus daily topical azaleic acid
  clinical response of granulomatous rosacea at follow-up: remained clear
Example 1, oral azithromycin 500 mg daily together with norgestimate/ethinyl estradiol, 9 weeks after initiation
  clinical response of granulomatous rosacea: greatly improved with only minimal residual facial erythema and no residual inflammatory lesions
Example 2, azithromycin decreased to 500 mg every other day, topicals continued
  clinical response of granulomatous rosacea at follow-up: no evidence of residual rosacea
Example 2, oral azithromycin 500 mg daily with topical sodium sulfacetamide 10%/sulfur 5% cream and metronidazole cream, six weeks after initiation
  clinical response of granulomatous rosacea: minimally perceptible residual erythema and papulation
Example 3, azithromycin as sole therapy, orally 250 mg daily for three weeks
  clinical response of granulomatous rosacea: remarkable improvement
Example 3, following cessation of azithromycin therapy (250 mg daily for three weeks)
  recurrence of granulomatous rosacea: has not had a recurrence
Administered systemically for a period of several weeks or more
  efficacy on signs and symptoms of granulomatous rosacea (general statement): effective

## Cc1onc(-c2c(Cl)cccc2Cl)c1C(=O)N[C@@H]1C(=O)N2[C@@H]1SC(C)(C)[C@@H]2C(=O)O [dicloxicillin]
Example 2, dicloxicillin, six weeks later
  clinical response of facial rash (later diagnosed granulomatous rosacea): persistent severe to worsening involvement

## CC1=C(C(=O)O)N2C(=O)[C@@H](NC(=O)[C@H](N)c3ccccc3)[C@H]2SC1 [cephalexin]
Example 2, patient, oral cephalexin, one month later
  clinical response of facial rash (later diagnosed granulomatous rosacea): worsening pustules and tender nodules
